This is an account of results in the OPERA property sets (Mansouri et al. 2018).

Structures are written as SMILES.

Details in one series: not given
A word on the boiling point: it is the temperature at which the vapour pressure of the liquid equals the pressure above it. A word on the melting point: it is the temperature, or range, at which the solid turns liquid. Compound `Cc1ccccc1CN` had a boiling point of 206 °C and a melting point of -30 °C.
Consider `Nc1ccc(O)c2c1C(=O)c1ccccc1C2=O`, for which the log10 vapour pressure (mmHg) was -8.52 and the melting point worked out at 216 °C.
`O=C1CCCC(=O)O1` gave a boiling point of 287 °C, a log10 vapour pressure (mmHg) of -2.52 and a melting point of 56.3 °C.
`CCCC(C)C(C)=O` (stereo unspecified) gave a boiling point of 144 °C.
In the case of `O=C(Cl)CCCC(=O)Cl`, the boiling point was determined as 217 °C and the log10 vapour pressure (mmHg) is -0.932.
The compound `O=C1c2c(O)cccc2C(=O)C2C(O)=CC=CC12` (stereo unspecified) displayed a melting point of 280 °C.
For the compound `C=COC(=O)CC`, the boiling point came to 91.2 °C, the melting point was -80 °C and the ready biodegradability entry was “readily biodegradable”.
The compound `Oc1ccc(Cl)c2cccnc12` showed a melting point of 130 °C.

The same series, now with this note: fish.
`Cc1ccccc1CN` had a log10 BCF of 0.66.
